Common to all, as to type: functional, cell-based
In experiment [1] the test system is PC-3. The experiment can be described thus: Cytotoxic activity against human PC3 cells assessed as reduction in cell viability after 72 hrs by SRB assay. The conditions noted are these: PC-3, 72 h. A general note: The SRB assay estimates cell density from bound dye.
Experiment [2] concerns A549. Nature of the experiment: Cytotoxic activity against human A549 cells assessed as reduction in cell viability after 72 hrs by SRB assay. To be noted: A549, 72 h.
The subject of experiment [3] is SK-OV-3. Nature of the experiment: Cytotoxic activity against human SKOV3 cells assessed as reduction in cell viability after 72 hrs by SRB assay. To be noted: SK-OV-3, 72 h.

As usually defined, the IC50 is the point on the concentration scale where inhibition reaches its midpoint.

A value given as a limit tells only on which side of the number the result lay.

For `COC(=O)C1=C[C@@H]2CCc3c(ccc(C(C)C)c3OC)[C@@]2(C)CC1`, the IC50 in experiment [1], in experiment [2] and in experiment [3] was greater than 100 µM throughout.
Consider `COc1c(C(C)C)ccc2c1CC[C@H]1C(=O)CCC[C@]21C`, for which the concentration for half-maximal inhibition (IC50) in experiment [1], in experiment [2] and in experiment [3] was greater than 100 µM each time.
Take `C[C@]12CC=C3C(=O)OC[C@@H]3[C@@H]1CCc1ccccc12`: the IC50 in experiment [1], in experiment [2] and in experiment [3] was greater than 100 µM in each case.
Regarding `COC(=O)[C@]1(C)CCC[C@@]2(C)[C@H]1CC=C1C(=O)[C@@](O)(C(C)C)CC[C@@H]12`, the figures for the IC50 in experiment [1], in experiment [2] and in experiment [3] were greater than 100 µM, 85.1 µM and 99.2 µM, respectively.
Take `C=C1[C@H](O)CC[C@]2(C)c3ccc(C(C)C)c(OC)c3CC[C@@H]12`: the 50% inhibitory concentration (IC50) is greater than 100 µM in experiment [1], 99.6 µM in experiment [2] and greater than 100 µM in experiment [3].
With `O=c1[nH]cc(F)c(=O)[nH]1` [FLUOROURACIL], the half-maximal inhibitory concentration (IC50) stood at 15.3 µM in experiment [1], 32.1 µM in experiment [2] and 23.1 µM in experiment [3].
With `C=C1C(=C(SC)SC)CC[C@]2(CO)c3ccc(C(C)C)c(OC)c3CC[C@@H]12`, the 50% inhibitory concentration (IC50) is 50.1 µM in experiment [1], 53.8 µM in experiment [2] and 32.9 µM in experiment [3].
For `CC(C)C1=CC2=CC[C@@H]3[C@](C)(CCC[C@@]3(C)C(=O)O)[C@H]2CC1` [ABIETIC ACID], in that order: greater than 100 µM, greater than 100 µM and 90.4 µM.
The matching figures for `COc1c(C(C)C)ccc2c1C=C[C@H]1C3=C(CC[C@]21C)C(=O)OC3`: greater than 100 µM, greater than 100 µM and greater than 100 µM.
Take `COc1c(C(C)C)ccc2c1CC[C@H]1C(=O)CCC[C@]21CO[N+](=O)[O-]`: the IC50 in experiment [1], in experiment [2] and in experiment [3] was greater than 100 µM each time.
With `CC(C)(C)C(=O)OC[C@H]1[C@H](O)CC[C@]2(C)c3ccccc3CC[C@@H]12`, the half-maximal inhibitory concentration (IC50) in experiment [1] was determined as 49.2 µM; in experiment [2] it was 64.5 µM; in experiment [3] it was 43.2 µM.
For `CC(C)c1ccc2c(c1O)C(=O)C[C@H]1C3=C(CC[C@]21CO)C(=O)OC3`, the 50% inhibitory concentration (IC50) in experiment [1] was 92.2 µM; in experiment [2], greater than 100 µM; in experiment [3], 95.4 µM.
For the compound `COc1cccc2c1CC[C@H]1[C@H]3COC(=O)C3=CC[C@]21C`, the IC50 in experiment [1] is greater than 100 µM; in experiment [2] it was 88.9 µM; in experiment [3] it was greater than 100 µM.
Regarding `C=CCOc1c(C(C)C)ccc2c1C(=O)C[C@H]1C3=C(CC[C@]21C)C(=O)OC3`, the half-maximal inhibitory concentration (IC50) in experiment [1] is 98.3 µM; in experiment [2], greater than 100 µM; in experiment [3], 82.4 µM.
With `COc1cccc2c1CC[C@H]1[C@H]3COC(=O)[C@@]3(O)C(=O)C[C@]21C`, the concentration for half-maximal inhibition (IC50) in experiment [1], in experiment [2] and in experiment [3] was greater than 100 µM throughout.
For the compound `COc1c(C(C)C)ccc2c1CC[C@H]1c3cocc3CC[C@]21C`, the IC50 in experiment [1] was found to be 19.3 µM; in experiment [2], 27.4 µM; in experiment [3], 21.3 µM.
For `COc1c(C(C)C)ccc2c1CC[C@H]1[C@@H](CO)[C@H](O)CC[C@]21C`, the 50% inhibitory concentration (IC50) in experiment [1], in experiment [2] and in experiment [3] was greater than 100 µM throughout.
Turning to `COc1cccc2c1CC[C@H]1C3=C(CC[C@]21C)C(=O)OC3`, the 50% inhibitory concentration (IC50) in experiment [1], in experiment [2] and in experiment [3] was greater than 100 µM in each case.
On to `CC(C)c1ccc2c(c1)CC[C@H]1[C@](C)(C(=O)O)CCC[C@]21C` [DEHYDROABIETIC ACID], for which the IC50 in experiment [1] turned out to be 51.3 µM; in experiment [2] it was 74.3 µM; in experiment [3], 66 µM.
For `COc1ccc(COC[C@H]2[C@H](O)CC[C@]3(C)c4cccc(OC)c4CC[C@@H]23)cc1`, the IC50 in experiment [1] was determined as 3.37 µM; in experiment [2], 5.39 µM; in experiment [3], 6.19 µM.
Consider `C=CCc1cc(C(C)C)c(O)c2c1[C@@]1(C)CCC3=C(COC3=O)[C@@H]1CC2=O`, for which the half-maximal inhibitory concentration (IC50) in experiment [1] was determined as 95.1 µM; in experiment [2], 97.5 µM; in experiment [3], 87.1 µM.
For `COc1c(C(C)C)ccc2c1CC[C@H]1[C@@H](O)CCC[C@]21CO[N+](=O)[O-]`, the 50% inhibitory concentration (IC50) in experiment [1], in experiment [2] and in experiment [3] was greater than 100 µM each time.
On to `COC(=O)[C@]1(C)CCC[C@]2(C)c3ccc(C(C)C)c(OC)c3[C@@H](O)C[C@@H]12`, for which the IC50 in experiment [1] worked out at 64.2 µM; in experiment [2], 85.7 µM; in experiment [3], 51.9 µM.
With `COC(=O)[C@]1(C)CCC[C@]2(C)c3ccc(C(C)C)c(OC)c3[C@H](O)C[C@@H]12`, the values for the IC50 in experiment [1], in experiment [2] and in experiment [3] were 55.9 µM, 76.6 µM and 72.2 µM, respectively.
As to `COC(=O)[C@]1(C)CCC[C@@]2(C)[C@H]1CC=C1[C@@H]2CC[C@](O)(C(C)C)[C@H]1O`, the IC50 in experiment [1] is greater than 100 µM; in experiment [2] it was 92.4 µM; in experiment [3] it was 92.9 µM.
As to `C=CCOc1cccc2c1C(=O)C[C@H]1C3=C(CC[C@]21C)C(=O)OC3`, the figures for the IC50 in experiment [1], in experiment [2] and in experiment [3] were greater than 100 µM, 89.4 µM and greater than 100 µM, respectively.
Consider `CC(C)c1ccc2c(c1O)CC[C@H]1C3=C(CC[C@]21C)C(=O)OC3` [TRIPTOPHENOLIDE], for which the IC50 in experiment [1], in experiment [2] and in experiment [3] was greater than 100 µM throughout.
For `COc1c(C(C)C)ccc2c1CC[C@H]1[C@H]3COC(=O)[C@H]3CC[C@]21C`, the IC50 in experiment [1], in experiment [2] and in experiment [3] was greater than 100 µM throughout.
For `CC(C)(C)[Si](C)(C)O[C@@H]1CC[C@]2(C)c3ccccc3CC[C@H]2[C@H]1CO`, the IC50 in experiment [1], in experiment [2] and in experiment [3] was greater than 100 µM each time.
With `COC(=O)[C@]1(C)CCC[C@]2(C)c3ccc(C(C)C)c(O)c3CC[C@@H]12`, the IC50 in experiment [1] was 22.3 µM; in experiment [2], 56 µM; in experiment [3], 42.9 µM.
The matching figures for `COC(=O)[C@]1(C)CCC[C@]2(C)c3ccc(C(C)C)c(OC)c3C(=O)C[C@@H]12`: 99.4 µM, greater than 100 µM and greater than 100 µM.
As to `CCOCC[C@]12CCC3=C(COC3=O)[C@@H]1CCc1c2ccc(C(C)C)c1OC`, the half-inhibitory concentration (IC50) in experiment [1], in experiment [2] and in experiment [3] was greater than 100 µM in each case.
For `C=C1C(=O)CC[C@]2(C)c3cccc(OC)c3CC[C@@H]12`, the figures for the IC50 in experiment [1], in experiment [2] and in experiment [3] were 5.01 µM, 5.47 µM and 3.31 µM, respectively.
In the case of `C=C1CCC[C@]2(C)c3ccc(C(C)C)c(OC)c3CC[C@@H]12`, the half-inhibitory concentration (IC50) is greater than 100 µM in experiment [1], 99.1 µM in experiment [2] and greater than 100 µM in experiment [3].
In the case of `COc1cccc2c1CC[C@H]1[C@@H](CO)[C@H](O[Si](C)(C)C(C)(C)C)CC[C@]21C`, the IC50 in experiment [1], in experiment [2] and in experiment [3] was greater than 100 µM each time.
With `COC(=O)[C@]1(C)CCC[C@@]2(C)[C@H]1CC=C1C=C(C(C)C)CC[C@@H]12` [METHYL ABIETATE], the IC50 turned out to be 79.3 µM in experiment [1], 63.1 µM in experiment [2] and 81.3 µM in experiment [3].

The values above are taken from ChEMBL document CHEMBL4000202, “Identification of a diverse synthetic abietane diterpenoid library for anticancer activity” (Bioorg Med Chem Lett, 2017).
